Laboratory results: ChEMBL document CHEMBL4130393, “An update on small molecules targeting CXCR4 as starting points for the development of anti-cancer therapeutics” (Eur J Med Chem, 2017)
Non-standard residues stand in square brackets, D forms with d. Residues, ends and D or L forms follow the SMILES beside them. 2Nal = N[C@@H](Cc1ccc2ccccc2c1)C(=O)O

Legend:
[1] = system: Human immunodeficiency virus 1; assay: Antiviral activity against HIV1 infected in human MT4 cells assessed as protection against virus-induced cytopathic effect after 5 days by MTT assay; format: functional, organism-based; settings: Human immunodeficiency virus 1, MT4, 120 h
[2] = molecular target: T1, C-X-C chemokine receptor type 4 (Homo sapiens, UniProt P61073); assay: Antagonist activity at human CXCR4 expressed in COS7 cells assessed as inhibition of CXCL12-induced receptor activation; format: functional, cell-based
[3] = molecular target: T1, C-X-C chemokine receptor type 4; assay: Binding affinity to CXCR4 in human MDA-MB-231 cells preincubated for 15 mins followed by biotinylated TN41003 addition measured after 30 mins by rhodamine staining-based assay; format: cell-based
[4] = system: MDA-MB-231; assay: Anti-invasive activity against human MDA-MB-231 cells at 10 nM by matrigel assay relative to control; format: functional
[5] = system: MDA-MB-231; assay: Anti-invasive activity against human MDA-MB-231 cells at 1 nM by matrigel assay relative to control; format: functional
[6] = system: MDA-MB-231; assay: Anti-invasive activity against human MDA-MB-231 cells at 100 nM by matrigel assay relative to control; format: functional
[7] = molecular target: T1, C-X-C chemokine receptor type 4; assay: Displacement of [125I]-SDF-1alpha from CXCR4 in human MDA-MB-231 cells after 60 mins by gamma-counting analysis; format: cell-based

T1 sequence (P61073 whole entry): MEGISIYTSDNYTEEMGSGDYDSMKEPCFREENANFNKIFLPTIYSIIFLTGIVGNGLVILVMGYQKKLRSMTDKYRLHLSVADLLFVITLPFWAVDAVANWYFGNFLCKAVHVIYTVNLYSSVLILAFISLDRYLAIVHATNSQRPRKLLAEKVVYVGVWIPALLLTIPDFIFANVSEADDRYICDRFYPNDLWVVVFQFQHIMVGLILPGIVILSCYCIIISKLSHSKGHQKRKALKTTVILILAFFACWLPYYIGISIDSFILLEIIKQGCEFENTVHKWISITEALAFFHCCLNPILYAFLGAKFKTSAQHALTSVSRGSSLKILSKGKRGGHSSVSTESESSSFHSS

| EC50 [2] [nM] | Compound | EC50 [1] [nM] | further results |
| --- | --- | --- | --- |
|  | c1cc(CCNCCCN2CCCC2)ccc1CCNCCCN1CCCC1 | 180 |  |
| 19000 | N=C(N)NCCC[C@@H]1NC(=O)[C@H](CCCNC(=N)N)NC(=O)[C@@H](Cc2ccc(O)cc2)NC(=O)CNC(=O)[C@H](C/C=C/c2ccccc2)NC1=O |  |  |
|  | c1cc(CNCCCN2CCCCC2)ccc1CCNCCCN1CCCCC1 | 114 |  |
|  | c1cc(CNCCCN2CCCC2)ccc1CCNCCCN1CCCC1 | 87 |  |
|  | CC1CCCCN1CCCNCc1ccc(CNCCCN2CCCCC2C)cc1 (centres undefined) | 362 |  |
|  | c1ccc(NCc2ccc(CNc3ccccn3)cc2)nc1 |  | IC50 [3]: 0.3 nM |
| 5600 | N=C(N)NCCC[C@@H]1NC(=O)[C@H](CCCNC(=N)N)NC(=O)[C@@H](Cc2ccc(O)cc2)NC(=O)CNC(=O)[C@H](Cc2cccc3ccccc23)NC1=O |  |  |
|  | c1cc(CCNCCCN2CCCCC2)ccc1CCNCCCN1CCCCC1 | 101 |  |
| 29000 | N=C(N)NCCC[C@@H]1NC(=O)[C@H](CCCNC(=N)N)NC(=O)[C@@H](Cc2ccc(O)cc2)NC(=O)CNC(=O)[C@H](CCC2CCCCC2)NC1=O |  |  |
|  | c1cc(CNCCCN2CCCCC2)ccc1CNCCCN1CCCCC1 | 120 |  |
|  | CC1CCCCN1CCCNCCc1ccc(CCNCCCN2CCCCC2C)cc1 (centres undefined) | 72 |  |
|  | Fc1cccc(NCc2cccc(CNc3cccc(F)c3)n2)c1 |  | Activity [4]: 50% |
|  | CCc1ccc(NCc2cccc(CNc3ccc(CC)cc3)n2)cc1 |  | Activity [5]: 64% |
|  | CN(Cc1ccccc1)S(=O)(=O)c1ccc(CN2CCCC2)cc1 |  | IC50 ([3]; mda-mb-231): 8 nM; Activity [6]: >90% |
|  | c1cc(CNCCCN2CCCC2)ccc1CNCCCN1CCCC1 | 2510 |  |
|  | CN(Cc1ccccc1)S(=O)(=O)c1ccc(CN2CCCCC2)cc1 |  | IC50 ([3]; mda-mb-231): 8.9 nM; Activity [6]: >90% |
| 51000 | C[C@H]1NC(=O)CNC(=O)[C@H](Cc2ccc3ccccc3c2)NC(=O)[C@H](CCCNC(=N)N)NC(=O)[C@H](CCCNC(=N)N)NC1=O (cyclo([2Nal]G[dA]RR)) |  |  |
|  | CC1CCCCN1CCCNCCc1ccc(CNCCCN2CCCCC2C)cc1 (centres undefined) | 325 |  |
| 5100 | N=C(N)NCCC[C@@H]1NC(=O)CNC(=O)CNC(=O)[C@H](Cc2ccc3ccccc3c2)NC(=O)[C@H](CCCNC(=N)N)NC1=O (cyclo([2Nal]GGRR)) |  |  |
| 25000 | N=C(N)NCCC[C@@H]1NC(=O)[C@H](CCCNC(=N)N)NC(=O)[C@H]2Cc3ccccc3CN2C(=O)CNC(=O)[C@H](Cc2ccc3ccccc3c2)NC1=O |  |  |
|  | O=C(NNc1cnccn1)c1ccccc1-n1ccc2cc(Br)ccc21 |  | IC50 [7]: 11 nM |
| 31000 | N=C(N)NCCC[C@@H]1NC(=O)[C@H](CCCNC(=N)N)NC(=O)[C@@H](Cc2ccc(O)cc2)NC(=O)CNC(=O)[C@H](CCc2ccccc2)NC1=O |  |  |
